Reference: PMC9894594, “Progressive Acceleration of Insulin Exposure Over 7 Days of Infusion Set Wear” (Diabetes Technology & Therapeutics, 2023)

What was measured:
[1] = Insulin lispro pharmacokinetics after pump bolus during euglycemic clamp over 7 days of infusion set wear; format: in vivo, human (participants with type 1 diabetes mellitus)
Text: (§1) We performed a prospectively enrolled randomized sequence two-way crossover study of the investigational CBX (Capillary Biomedical, Inc., Irvine, CA) and a commercial angled Teflon (MiniMed™ Silhouette™; Medtronic Diabetes Care, Northridge, CA; indicated for 3-day use) IIS for two weeklong home use periods with four in-patient euglycemic clamp sessions during each of the 7-day periods. Between the two periods, there was a wash out of 14 days (Supplementary Fig. S1).
(§2) Euglycemic clamp experiments were performed at AMCR Institute (in Escondido, CA.) on days 0, 3, 5, and 7 in each treatment period (eight clamps per participant). Participants were admitted to AMCR the evening before the clamp study and glucose was stabilized overnight with intravenous (IV) insulin or glucose as needed. Personal pumps were set to 0.1 U/h overnight and throughout the clamp experiment. Once glucose was stable (95 ± 15 mg/dL) in the morning, IV insulin was stopped 20 min before administering a bolus of 0.15 U/kg of insulin lispro (Eli Lilly, Indianapolis, IN) by pump. Glucose was clamped at 95 ± 15 mg/dL for 300 min or terminated early if runaway hyperglycemia occurred.
Per participant and clamp, 30 plasma samples were collected in regular intervals and stored at −70°C. Samples were analyzed elsewhere (Northern Lights Mercodia Lispro ELISA, Mercodia AB, Uppsala, Sweden; lowest limit of quantification (LLOQ) = 1.0 mU/L, 94% accuracy[7]). Owing to the small sample size and the intrinsically greater variability in pharmacodynamic measures, the PK results are the only results detailed in this report.
(§3) PK parameters (area under the insulin concentration curve [AUC] over the first 60 or 300 min, respectively; time to maximum insulin concentration [tmax]; maximum insulin concentration [Cmax]; time to half-maximum insulin concentration, early and late [t50%], and mean residence time [MRT]) were tested for treatment effects. […] Estimated means were then back transformed and the ratio between treatments/days (equality means a ratio of 1) tested for significance using mixed model for repeated measures (two-sided, α = 0.05). For simplicity reasons, all data are presented as median (25th–75th percentiles) or mean ± standard deviation.

[2] = Euglycemic clamp pharmacodynamics (glucose infusion rate) after insulin lispro pump bolus; format: in vivo, human (participants with type 1 diabetes mellitus); parameters: t50% (GIR, early) (time to reach 50% GIRmax before peak) / t50% (GIR, late) (time to reach 50% GIRmax after peak): unit: min; details: 0.15 U/kg SC bolus by pump, euglycemic clamp 300 min, median (25th–75th)
Text: as §1, §2, §3

[3] = day 7 of IIS wear, Control IIS, 0.15 U/kg SC bolus by pump, plasma ELISA, median (25th–75th), n = 5
[4] = day 0 of IIS wear, CBX IIS, n = 6
[5] = day 0 of IIS wear, Control IIS, n = 6
[6] = day 3 of IIS wear, CBX IIS, n = 6
[7] = day 3 of IIS wear, Control IIS, n = 6
[8] = day 5 of IIS wear, CBX IIS, n = 6
[9] = day 5 of IIS wear, Control IIS, n = 6
[10] = day 7 of IIS wear, CBX IIS, n = 5
[11] = day 7 of IIS wear, Control IIS, n = 5

Substance: insulin lispro
- MRT (mean residence time) [1, 3]: 75.4 (62.2–98.6) min
- t50% (early) (time to reach 50% of Cmax before peak) [1, 3]: 12.3 (11.5–16.4) min
- t50% (late) (time to reach 50% of Cmax after peak) [1, 3]: 63.5 (57.5–77.9) min
- tmax (time to maximum insulin concentration) [1, 3]: 25.0 (20.0–30.0) min
- decline of AUC0–300 from days 0 to 7 ([1]; pooled data from both IIS groups, 0.15 U/kg bolus): ~24%
- AUC0–300(GIR) (area under the GIR curve from 0 to 300 min) [2, 4]: 1205 (642.1–1219) mg/kg
- GIRmax (maximum glucose infusion rate) [2, 4]: 8.4 (4.5–9.1) mg/(kg·min)
- Onset of action [2, 4]: 28.9 (21.4–39.0) min
- t50% (GIR, early) (time to reach 50% GIRmax before peak) [2, 4]: 48.7 (25.7–63.5)
- t50% (GIR, late) (time to reach 50% GIRmax after peak) [2, 4]: 187.4 (160.4–234.3)
- tmax(GIR) (time to reach GIRmax) [2, 4]: 140.0 (80.0–170.0) min
- AUC0–300(GIR) (area under the GIR curve from 0 to 300 min) [2, 5]: 1330 (790.6–1539) mg/kg
- GIRmax (maximum glucose infusion rate) [2, 5]: 10.2 (7.7–11.7) mg/(kg·min)
- Onset of action [2, 5]: 76.1 (56.6–106.4) min
- t50% (GIR, early) (time to reach 50% GIRmax before peak) [2, 5]: 67.6 (43.0–93.5)
- t50% (GIR, late) (time to reach 50% GIRmax after peak) [2, 5]: 182.6 (164.3–247.3)
- tmax(GIR) (time to reach GIRmax) [2, 5]: 145.0 (90.0–190.0) min
- AUC0–300(GIR) (area under the GIR curve from 0 to 300 min) [2, 6]: 719.6 (652.3–864.3) mg/kg
- GIRmax (maximum glucose infusion rate) [2, 6]: 7.41 (5.7–9.5) mg/(kg·min)
- Onset of action [2, 6]: 28.2 (12.1–34.0) min
- t50% (GIR, early) (time to reach 50% GIRmax before peak) [2, 6]: 49.0 (37.7–95.0)
- t50% (GIR, late) (time to reach 50% GIRmax after peak) [2, 6]: 157.6 (97.5–179.0)
- tmax(GIR) (time to reach GIRmax) [2, 6]: 65.00 (60.0–120.0) min
- AUC0–300(GIR) (area under the GIR curve from 0 to 300 min) [2, 7]: 743.1 (585.5–1268) mg/kg
- GIRmax (maximum glucose infusion rate) [2, 7]: 5.2 (5.0–13.5) mg/(kg·min)
- Onset of action [2, 7]: 35.4 (29.0–41.4) min
- t50% (GIR, early) (time to reach 50% GIRmax before peak) [2, 7]: 51.3 (44.9–55.6)
- t50% (GIR, late) (time to reach 50% GIRmax after peak) [2, 7]: 147.8 (88.3–177.7)
- tmax(GIR) (time to reach GIRmax) [2, 7]: 82.0 (60.0–110.0) min
- AUC0–300(GIR) (area under the GIR curve from 0 to 300 min) [2, 8]: 663.5 (609.8–1332) mg/kg
- GIRmax (maximum glucose infusion rate) [2, 8]: 8.1 (6.5–10.9) mg/(kg·min)
- Onset of action [2, 8]: 21.1 (18.4–23.8) min
- t50% (GIR, early) (time to reach 50% GIRmax before peak) [2, 8]: 33.3 (28.7–37.0)
- t50% (GIR, late) (time to reach 50% GIRmax after peak) [2, 8]: 92.6 (77.1–147.0)
- tmax(GIR) (time to reach GIRmax) [2, 8]: 62.5 (50.0–70.0) min
- AUC0–300(GIR) (area under the GIR curve from 0 to 300 min) [2, 9]: 695.2 (585.4–1395) mg/kg
- GIRmax (maximum glucose infusion rate) [2, 9]: 9.1 (7.3–10.8) mg/(kg·min)
- Onset of action [2, 9]: 20.0 (16.4–23.0) min
- t50% (GIR, early) (time to reach 50% GIRmax before peak) [2, 9]: 38.8 (30.6–39.1)
- t50% (GIR, late) (time to reach 50% GIRmax after peak) [2, 9]: 106.8 (95.4–140.2)
- tmax(GIR) (time to reach GIRmax) [2, 9]: 59.0 (55.0–60.0) min
- AUC0–300(GIR) (area under the GIR curve from 0 to 300 min) [2, 10]: 883.0 (380.6–908.4) mg/kg
- GIRmax (maximum glucose infusion rate) [2, 10]: 10.1 (4.9–11.3) mg/(kg·min)
- Onset of action [2, 10]: 18.8 (16.2–27.0) min
- t50% (GIR, early) (time to reach 50% GIRmax before peak) [2, 10]: 32.2 (28.0–36.0)
- t50% (GIR, late) (time to reach 50% GIRmax after peak) [2, 10]: 107.5 (105.9–117.8)
- tmax(GIR) (time to reach GIRmax) [2, 10]: 55.0 (50.0–55.0) min
- AUC0–300(GIR) (area under the GIR curve from 0 to 300 min) [2, 11]: 687.7 (386.7–1039) mg/kg
- GIRmax (maximum glucose infusion rate) [2, 11]: 9.2 (6.9–11.5) mg/(kg·min)
- Onset of action [2, 11]: 27.5 (14.6–32.0) min
- t50% (GIR, early) (time to reach 50% GIRmax before peak) [2, 11]: 48.1 (23.2–48.1)
- t50% (GIR, late) (time to reach 50% GIRmax after peak) [2, 11]: 96.7 (87.1–109.5)
- tmax(GIR) (time to reach GIRmax) [2, 11]: 70.0 (60.0–70.0) min
